Results on 17 compounds are retold here after PubChem BioAssay (NCI).

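The compound was tested at five concentrations on cells cultured in 96-well plates, with a 48-hour exposure period. TGI is the concentration that stops growth completely.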 Where only a bound is given, the exact number is not on record here.

Common to all, as to assay: DTP human tumour cell line panel, 48 h
Experiment [1] has as its system OVCAR-3 ovarian.
In experiment [2] the test system is HCT-15 colon.
The test system of experiment [3] is OVCAR-8 ovarian.
The test system of experiment [4] is NCI-H23 lung.
The subject of experiment [5] is SF-268 CNS.
The test system of experiment [6] is UACC-62 melanoma.
Experiment [7] has as its system SK-MEL-28 melanoma.
For experiment [8], the system named is U251 CNS.
The subject of experiment [9] is MDA-N.
Experiment [10] deals with NCI-H226 lung.
In experiment [11] the test system is SK-MEL-5 melanoma.
Experiment [12] concerns SK-OV-3 ovarian.
The test system of experiment [13] is MCF7 breast.
Experiment [14] concerns DU-145 prostate.
The test system of experiment [15] is KM12 colon.
The test system of experiment [16] is HOP-92 NSCLC.
For experiment [17], the system named is IGROV1 ovarian.
For experiment [18], the system named is MDA-MB-231 breast.
Experiment [19] deals with SR leukemia.

The TGI is the concentration giving total growth inhibition. The low end stands for greater sensitivity of the cells, the high end for lower sensitivity of the cells. With `O=c1oc2ccccc2c(O)c1C(c1ccc2ccccc2c1)c1c(O)c2ccccc2oc1=O`, the TGI in experiment [1] is more than 100 µM; in experiment [2], 47.5 µM; in experiment [3], 31.6 µM; in [4], 68.8 µM; in experiment [5], 50.8 µM; in experiment [6], more than 100 µM. The TGI in experiment [7] was 80.1 µM; in experiment [8] it was 39.2 µM; in experiment [9] it was 68.9 µM; in [10] it was 67.9 µM; in [11], 54.4 µM; in experiment [12], more than 100 µM. Besides, the TGI in [13] is more than 100 µM; in [14] it was more than 100 µM; in experiment [15], 40 µM; in experiment [16], more than 100 µM; in [17], 90.3 µM; in [18], 47.1 µM.

Regarding `Cc1ccc2nc(CN3CCCCC3)cc(=O)n2c1`, the TGI in experiment [1], in [2], in experiment [3], in experiment [4], in experiment [5] and in experiment [6] was more than 100 µM throughout. Besides, the TGI in experiment [7], in [8], in experiment [10], in [12], in experiment [13] and in experiment [19] was more than 100 µM each time. For the same compound, the TGI in experiment [14], in experiment [15], in experiment [16], in [17] and in [18] was more than 100 µM throughout.

`Cn1c(=S)[nH]c2c(Cl)cc(Cl)cc2c1=O`: the TGI in experiment [1], in [2], in [3], in [4], in experiment [5] and in [6] was more than 100 µM throughout. Also, the TGI in experiment [7], in experiment [8], in [9], in [11], in experiment [12] and in experiment [13] was more than 100 µM each time. Also, the TGI in experiment [14], in experiment [15], in [16], in experiment [17] and in experiment [18] was more than 100 µM in each case.

`C=CCN1C(=O)N/C(=C\c2ccc(Cl)cc2)C1=O`: the TGI in experiment [1], in [2], in experiment [3], in [4], in [5] and in experiment [6] was more than 100 µM throughout. Further, the TGI in experiment [7], in experiment [8], in experiment [9], in experiment [10], in [11] and in [12] was more than 100 µM in each case. Also, the TGI in [13], in [14], in experiment [15], in [16], in [17] and in experiment [18] was more than 100 µM each time.

In the case of `C#CCOC(=O)C(N)CS` (stereo not drawn), the TGI in experiment [1], in [3], in [4], in [5], in [6] and in [7] was more than 100 µM throughout. In addition, the TGI in experiment [8], in experiment [9], in experiment [10], in [11], in experiment [12] and in experiment [13] was more than 100 µM throughout. The TGI in experiment [14], in [15], in experiment [16], in experiment [17] and in experiment [18] was more than 100 µM in each case.

`CC(C(O)c1ccccc1)N(C)/N=N/c1nc2c([nH]1)c(=O)n(C)c(=O)n2C` (stereo not drawn): the TGI in experiment [1], in [2], in [3], in experiment [4], in experiment [5] and in [6] was more than 100 µM in each case. The TGI in experiment [7], in experiment [8], in experiment [9], in [10], in experiment [11] and in [12] was more than 100 µM in each case. The total growth inhibition concentration (TGI) in [13], in experiment [14], in [15], in experiment [17] and in [18] was more than 100 µM in each case.

Regarding `O=S(=O)([N-]c1nc2ccccc2nc1-[n+]1ccccc1)c1ccccc1`, the TGI in experiment [1], in [2], in [3], in experiment [4], in [5] and in experiment [6] was more than 100 µM each time. The TGI is more than 100 µM in [10]; more than 100 µM in experiment [11]; more than 100 µM in experiment [12]; more than 100 µM in [13]; 77.3 µM in [19]; more than 100 µM in [15]. Moreover, the TGI in experiment [16] was more than 100 µM; in experiment [17] it was more than 100 µM; in experiment [18], 84.8 µM.

`Clc1cccc(Cl)c1C1SCc2nc3cc4ccccc4cc3n21` (stereo not drawn): the concentration for total growth inhibition (TGI) in experiment [1], in [2], in [3], in experiment [4], in [5] and in [6] was more than 100 µM in each case. In addition, the TGI in experiment [7], in experiment [8], in experiment [9], in [10], in experiment [11] and in experiment [12] was more than 100 µM throughout. For the same compound, the TGI in experiment [13], in experiment [14], in experiment [15], in experiment [17] and in [18] was more than 100 µM in each case.

`C=C(CO)[C@H]1CC/C(C)=C/CC/C(C)=C/C/C=C(\C)[C@H](O)C1`: the TGI in experiment [1] is 93.6 µM; in experiment [2], more than 100 µM; in experiment [3] it was 35.3 µM; in experiment [4], 86.9 µM; in [5], 51.4 µM; in experiment [6], 58.4 µM. Further, the total growth inhibition concentration (TGI) in experiment [7] was 31.2 µM; in [8] it was 36 µM; in experiment [9] it was more than 100 µM; in experiment [10], 90.9 µM; in experiment [11] it was 54.1 µM; in experiment [12], more than 100 µM. Besides, the TGI in experiment [13] was 60.8 µM; in [14], more than 100 µM; in experiment [15], 29.5 µM; in [16], 39.5 µM; in experiment [17] it was 36.1 µM; in experiment [18], 56.6 µM.

With `CC/C(=C/OC)P1(=O)OC(C)(C)CN1C(C)(C)C` (stereo not drawn), the TGI in [1], in [2], in experiment [3], in experiment [4], in experiment [5] and in experiment [6] was more than 100 µM each time. Moreover, the TGI in [8], in experiment [10], in [11], in experiment [12], in experiment [13] and in experiment [19] was more than 100 µM each time. Moreover, the TGI in experiment [14], in experiment [15], in experiment [17] and in experiment [18] was more than 100 µM each time.

As for `Nc1ccccc1C(=O)NNC(=O)c1ccccc1N`, the TGI in experiment [1], in experiment [2], in [3], in experiment [4], in [6] and in [7] was more than 100 µM throughout. The TGI in [8], in experiment [9], in [10], in experiment [11], in experiment [12] and in experiment [13] was more than 100 µM throughout. In addition, the TGI in experiment [14], in [15], in experiment [16], in [17] and in experiment [18] was more than 100 µM each time.

For the compound `CCOC(=O)Cc1nc2nn(Cc3ccccc3)cc2c(=O)[nH]1`, the TGI in [1], in experiment [2], in [3], in experiment [4], in experiment [5] and in experiment [6] was more than 100 µM in each case. In addition, the TGI in experiment [7], in [8], in [9], in experiment [10], in experiment [11] and in experiment [12] was more than 100 µM in each case. For the same compound, the TGI in experiment [13], in [14], in experiment [15], in experiment [17] and in [18] was more than 100 µM in each case.

Turning to `Cc1cc2c(cc1Cl)SC(NNC(=O)c1ccncc1)=NS2(=O)=O`, the TGI in experiment [1], in experiment [2], in experiment [3], in [4], in experiment [5] and in experiment [6] was more than 10 µM in each case. Moreover, the TGI in [7], in [8], in experiment [9], in experiment [10], in [11] and in experiment [12] was more than 10 µM throughout. The TGI in experiment [14], in experiment [15], in experiment [17] and in experiment [18] was more than 10 µM throughout.

On to `CN=C1Nc2ccccc2C(=S)N2CSC[C@@H]12`, for which the TGI in experiment [1], in experiment [2], in [3], in experiment [4], in experiment [5] and in experiment [6] was more than 100 µM throughout. For the same compound, the TGI in experiment [7], in experiment [8], in experiment [11], in experiment [12], in experiment [13] and in [19] was more than 100 µM each time. Further, the TGI in experiment [14], in [15], in experiment [16] and in [18] was more than 100 µM throughout.

With `CC1(C)C[C@H]2C3=CC[C@@H]4[C@@]5(C)CC[C@H](O)C(C)(C)[C@@H]5CC[C@@]4(C)[C@]3(C)C[C@@H](O)[C@@]23C[C@@H]1OC3=O`, the TGI in experiment [1], in experiment [2], in [3], in experiment [4], in experiment [5] and in experiment [6] was more than 100 µM each time. In addition, the TGI in experiment [7], in experiment [8], in experiment [11], in experiment [12], in experiment [13] and in [19] was more than 100 µM each time. The TGI in experiment [14], in experiment [15], in experiment [16], in experiment [17] and in [18] was more than 100 µM in each case.

For `COc1ccccc1NC(=S)Nc1cccc(C)n1`, the TGI in experiment [1], in experiment [2], in [3], in [5], in experiment [6] and in [7] was more than 100 µM throughout. Also, the TGI in experiment [8], in experiment [10], in experiment [11], in [12], in experiment [13] and in [19] was more than 100 µM each time. Moreover, the TGI in experiment [14], in experiment [15] and in [17] was more than 100 µM throughout.

With `CC1=C(N(C)C)C(=O)c2nc3n(c2C1=O)CCC3OC(N)=O` (stereo not drawn), the TGI in experiment [1] stood at 30.6 µM; in [2], 28.9 µM; in [3], 34.3 µM; in [4], 28.5 µM; in experiment [5], 34.6 µM; in experiment [6], 18 µM. The TGI in experiment [7] is 34.4 µM; in experiment [8], 49.9 µM; in [10], 33.7 µM; in experiment [11], 23.7 µM; in experiment [12] it was 29.5 µM; in experiment [19] it was more than 100 µM. Also, the TGI in experiment [15] was 31.5 µM; in experiment [16], 28.2 µM; in experiment [17], 30.6 µM.
